The target of one assay is JMJD3 (KDM6B) (Homo sapiens, UniProt O15054). In words: AlphaScreen histone demethylase assay. The class given is biochemical. The source says:
Protocols for in vitro PHD1–3 MALDI-TOF MS hydroxylation assays[30] and for the AlphaScreen histone demethylase assays[44] were as reported.
A general note: In Alpha technology, singlet oxygen from a donor bead excites a nearby acceptor bead.

For the next assay, the target named is JARID1D (KDM5D) (Homo sapiens, UniProt Q9BY66). The assay is described as follows: AlphaScreen histone demethylase assay. The class given is biochemical.
Sequence of JARID1D (KDM5D) (Q9BY66 whole entry): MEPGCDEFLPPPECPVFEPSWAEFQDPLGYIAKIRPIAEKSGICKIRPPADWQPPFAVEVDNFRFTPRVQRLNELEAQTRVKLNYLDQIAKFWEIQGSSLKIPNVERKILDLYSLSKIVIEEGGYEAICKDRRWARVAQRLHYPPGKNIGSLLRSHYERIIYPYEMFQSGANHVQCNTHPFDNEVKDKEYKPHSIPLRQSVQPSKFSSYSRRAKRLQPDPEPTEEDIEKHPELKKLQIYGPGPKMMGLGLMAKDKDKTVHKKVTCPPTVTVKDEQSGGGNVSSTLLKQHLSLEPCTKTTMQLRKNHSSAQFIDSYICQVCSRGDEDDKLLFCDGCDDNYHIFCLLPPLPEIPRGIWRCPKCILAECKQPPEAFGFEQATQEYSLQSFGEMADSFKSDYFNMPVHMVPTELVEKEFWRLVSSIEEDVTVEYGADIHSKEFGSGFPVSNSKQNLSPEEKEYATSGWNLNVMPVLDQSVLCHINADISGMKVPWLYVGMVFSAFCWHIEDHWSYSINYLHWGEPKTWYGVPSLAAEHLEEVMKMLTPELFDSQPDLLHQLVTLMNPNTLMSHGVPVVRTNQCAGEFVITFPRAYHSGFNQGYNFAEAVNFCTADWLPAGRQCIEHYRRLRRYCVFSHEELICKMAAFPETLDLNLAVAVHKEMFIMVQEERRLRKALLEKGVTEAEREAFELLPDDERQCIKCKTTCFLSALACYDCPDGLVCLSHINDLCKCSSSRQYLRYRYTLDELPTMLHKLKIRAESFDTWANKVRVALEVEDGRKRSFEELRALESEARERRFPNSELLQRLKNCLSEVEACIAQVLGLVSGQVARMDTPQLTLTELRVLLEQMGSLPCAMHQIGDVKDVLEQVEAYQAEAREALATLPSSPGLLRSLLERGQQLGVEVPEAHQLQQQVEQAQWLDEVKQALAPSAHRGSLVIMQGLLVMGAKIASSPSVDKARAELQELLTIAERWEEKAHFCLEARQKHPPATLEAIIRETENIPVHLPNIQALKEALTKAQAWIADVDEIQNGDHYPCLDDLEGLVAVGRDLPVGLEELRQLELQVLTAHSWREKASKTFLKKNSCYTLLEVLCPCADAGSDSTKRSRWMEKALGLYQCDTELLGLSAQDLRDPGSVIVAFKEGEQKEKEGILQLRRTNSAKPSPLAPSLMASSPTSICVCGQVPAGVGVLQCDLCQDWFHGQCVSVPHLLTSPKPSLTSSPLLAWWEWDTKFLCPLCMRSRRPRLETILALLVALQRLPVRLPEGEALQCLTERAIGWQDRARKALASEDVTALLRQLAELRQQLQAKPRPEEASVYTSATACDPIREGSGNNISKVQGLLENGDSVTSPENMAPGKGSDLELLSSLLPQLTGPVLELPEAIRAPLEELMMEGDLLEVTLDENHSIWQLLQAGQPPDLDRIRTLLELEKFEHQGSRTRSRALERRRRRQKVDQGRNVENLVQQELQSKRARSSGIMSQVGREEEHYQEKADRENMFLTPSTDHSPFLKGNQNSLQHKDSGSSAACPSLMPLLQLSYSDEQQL
The target in another assay is T1, JARID1A (KDM5A) (Homo sapiens, UniProt P29375).
T1 sequence (P29375 12-797 limits assumed): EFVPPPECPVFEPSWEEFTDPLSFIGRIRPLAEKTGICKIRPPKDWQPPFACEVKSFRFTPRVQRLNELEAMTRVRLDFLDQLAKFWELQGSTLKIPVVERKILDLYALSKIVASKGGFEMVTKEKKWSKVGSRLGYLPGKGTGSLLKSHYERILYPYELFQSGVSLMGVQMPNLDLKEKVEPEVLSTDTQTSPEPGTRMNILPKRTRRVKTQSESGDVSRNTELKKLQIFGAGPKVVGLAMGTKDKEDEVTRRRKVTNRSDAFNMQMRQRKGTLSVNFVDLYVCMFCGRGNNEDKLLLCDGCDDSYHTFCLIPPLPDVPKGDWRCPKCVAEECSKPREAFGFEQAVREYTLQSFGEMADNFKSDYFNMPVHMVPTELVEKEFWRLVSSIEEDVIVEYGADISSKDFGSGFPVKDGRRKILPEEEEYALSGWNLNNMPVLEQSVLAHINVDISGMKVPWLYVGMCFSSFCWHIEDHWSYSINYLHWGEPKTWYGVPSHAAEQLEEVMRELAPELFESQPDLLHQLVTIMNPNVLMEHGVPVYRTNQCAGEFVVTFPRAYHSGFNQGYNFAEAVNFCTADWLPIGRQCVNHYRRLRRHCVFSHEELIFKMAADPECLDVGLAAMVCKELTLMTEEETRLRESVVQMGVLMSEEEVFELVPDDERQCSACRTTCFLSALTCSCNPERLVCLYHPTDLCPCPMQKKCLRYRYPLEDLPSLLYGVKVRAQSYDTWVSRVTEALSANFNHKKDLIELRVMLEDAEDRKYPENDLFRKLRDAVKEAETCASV
The assay is described as follows: AlphaScreen histone demethylase assay. The class given is biochemical.

Another assay concerns the target JARID1C (KDM5C) (Homo sapiens, UniProt P41229). The assay is described as follows: AlphaScreen histone demethylase assay. The class given is biochemical.
In another assay the target is T2, Ofd1 (Schizosaccharomyces pombe, UniProt Q11120).
T2 construct: His6 (N); made in house; host or cells: E. coli BL21(DE3)
T2 sequence (Q11120 1-515): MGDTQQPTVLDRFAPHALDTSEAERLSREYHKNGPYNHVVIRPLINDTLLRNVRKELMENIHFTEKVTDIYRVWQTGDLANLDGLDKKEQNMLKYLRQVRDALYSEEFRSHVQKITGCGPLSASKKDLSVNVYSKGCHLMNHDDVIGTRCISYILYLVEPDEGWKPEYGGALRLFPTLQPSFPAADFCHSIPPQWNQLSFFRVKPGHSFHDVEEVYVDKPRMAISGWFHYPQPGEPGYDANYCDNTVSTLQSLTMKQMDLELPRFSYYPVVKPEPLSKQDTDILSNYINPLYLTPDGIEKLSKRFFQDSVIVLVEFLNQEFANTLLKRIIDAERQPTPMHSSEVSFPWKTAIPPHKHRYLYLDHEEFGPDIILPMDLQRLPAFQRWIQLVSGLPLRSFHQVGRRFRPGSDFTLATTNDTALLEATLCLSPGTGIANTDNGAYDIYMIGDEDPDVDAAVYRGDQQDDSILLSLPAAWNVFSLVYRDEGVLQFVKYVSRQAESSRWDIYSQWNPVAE
In words: MALDI-TOF MS Ofd1 hydroxylation assay. The class given is biochemical.

The subject of assay [1] is HIF-1α and HIF-2α in Hep3b cells. In words: Immunoblotting of HIF-α stabilization in Hep3b cells. The class given is cell-based, human. How it is done: We then investigated potential time dependent effects of the inhibitors on HIF-α stabilization in Hep3b cells (Fig. 5A). […]
Cell Culture and Immunoblotting
HeLa and RCC4 cells were cultured in Dulbecco’s Modified Eagle’s Medium (DMEM; Sigma Aldrich D6546-500ML) supplemented with 10% fetal bovine serum (Sigma Aldrich F7524-500ML), 4 mM L-glutamine (Sigma Aldrich G7513- 100ML), 50 U/mL penicillin, and 50 μg/mL streptomycin (Sigma Aldrich P0781-100ML). Cells were seeded to reach 90-100% confluency prior to compound treatment. Cells were exposed to the inhibitor at a final concentration of 1% DMSO for 5-6 hours. For Fe(II) titration in the presence of inhibitors, […]
Cells were harvested in urea/SDS buffer (6.7 M urea, 10 mM Tris-Cl pH 6.8, 10% glycerol, and1% SDS) supplemented with 1mM dithiothreitol following a phosphate-buffered saline (PBS) rinse. Cell extracts were analyzed with SDS-PAGE, electroblotted to polyvinylidene difluoride (PVDF) membrane (Millipore) and probed with the corresponding primary antibody for 1 hour at room temperature or overnight at 4 °C. The secondary antibody specific to primary antibody species conjugated with HRP were applied at room temperature for 1 hour.
Millipore), anti-HIF-1α Hyp564 (D43B5, Cell Signaling), anti-HIF-1α HyN803 (a generous […]
Abcam). Details of antibodies used are given in Tian et al.17 Detection of signal was achieved […]
unless otherwise stated) either with film or ChemiDoc MP (BIO-RAD) imaging system. TM Quantification of the immunobloting signal was performed with Image Lab software from […]

The mark [2] stands for this setting: isolated recombinant enzyme, 1 μM, read-out: IC50 Ofd1.

Like-named read-outs stand apart in the source and are kept apart here.

The source of these data is article PMC5802278, “Molecular and cellular mechanisms of HIF prolyl hydroxylase inhibitors in clinical trials” (Chemical Science, 2017).

Sequence of JARID1C (KDM5C) (P41229 whole entry): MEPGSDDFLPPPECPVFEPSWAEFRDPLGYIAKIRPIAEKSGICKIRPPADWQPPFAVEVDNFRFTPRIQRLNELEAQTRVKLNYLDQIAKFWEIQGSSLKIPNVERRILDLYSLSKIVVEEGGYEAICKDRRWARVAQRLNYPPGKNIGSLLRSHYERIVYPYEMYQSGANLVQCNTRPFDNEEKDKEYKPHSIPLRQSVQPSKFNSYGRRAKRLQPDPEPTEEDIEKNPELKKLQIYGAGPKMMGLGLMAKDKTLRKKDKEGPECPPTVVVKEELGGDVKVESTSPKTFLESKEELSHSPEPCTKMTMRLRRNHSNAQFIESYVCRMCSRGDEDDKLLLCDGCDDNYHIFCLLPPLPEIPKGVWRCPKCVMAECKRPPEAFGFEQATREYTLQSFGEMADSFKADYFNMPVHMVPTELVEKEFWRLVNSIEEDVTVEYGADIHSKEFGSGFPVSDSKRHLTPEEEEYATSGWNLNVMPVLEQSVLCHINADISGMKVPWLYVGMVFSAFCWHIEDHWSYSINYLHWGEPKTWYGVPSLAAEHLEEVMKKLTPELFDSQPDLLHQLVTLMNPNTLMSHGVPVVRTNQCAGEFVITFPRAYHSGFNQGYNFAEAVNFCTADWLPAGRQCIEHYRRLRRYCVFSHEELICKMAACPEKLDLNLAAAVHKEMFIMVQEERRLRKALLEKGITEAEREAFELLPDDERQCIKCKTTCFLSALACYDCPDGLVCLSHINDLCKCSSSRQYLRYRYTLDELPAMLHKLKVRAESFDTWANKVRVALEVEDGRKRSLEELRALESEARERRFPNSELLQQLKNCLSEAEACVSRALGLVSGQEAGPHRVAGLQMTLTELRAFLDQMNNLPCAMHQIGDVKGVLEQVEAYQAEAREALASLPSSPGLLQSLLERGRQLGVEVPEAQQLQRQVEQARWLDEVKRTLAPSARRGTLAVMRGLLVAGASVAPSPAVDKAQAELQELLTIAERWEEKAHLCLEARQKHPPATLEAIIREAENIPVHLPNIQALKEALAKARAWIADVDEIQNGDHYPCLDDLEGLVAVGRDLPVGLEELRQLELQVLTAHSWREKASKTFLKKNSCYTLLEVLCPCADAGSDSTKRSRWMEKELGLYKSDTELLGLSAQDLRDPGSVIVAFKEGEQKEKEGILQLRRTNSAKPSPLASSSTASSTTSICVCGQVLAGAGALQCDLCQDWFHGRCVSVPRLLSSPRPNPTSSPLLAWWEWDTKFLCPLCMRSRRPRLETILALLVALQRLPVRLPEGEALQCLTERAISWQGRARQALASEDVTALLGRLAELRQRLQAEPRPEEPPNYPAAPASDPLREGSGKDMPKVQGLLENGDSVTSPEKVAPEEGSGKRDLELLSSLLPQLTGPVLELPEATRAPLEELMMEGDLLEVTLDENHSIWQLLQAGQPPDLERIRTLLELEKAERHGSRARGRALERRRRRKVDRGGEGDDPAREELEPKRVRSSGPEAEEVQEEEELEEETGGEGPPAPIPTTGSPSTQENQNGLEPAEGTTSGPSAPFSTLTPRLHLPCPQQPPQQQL
Sequence of JMJD3 (KDM6B) (O15054 whole entry): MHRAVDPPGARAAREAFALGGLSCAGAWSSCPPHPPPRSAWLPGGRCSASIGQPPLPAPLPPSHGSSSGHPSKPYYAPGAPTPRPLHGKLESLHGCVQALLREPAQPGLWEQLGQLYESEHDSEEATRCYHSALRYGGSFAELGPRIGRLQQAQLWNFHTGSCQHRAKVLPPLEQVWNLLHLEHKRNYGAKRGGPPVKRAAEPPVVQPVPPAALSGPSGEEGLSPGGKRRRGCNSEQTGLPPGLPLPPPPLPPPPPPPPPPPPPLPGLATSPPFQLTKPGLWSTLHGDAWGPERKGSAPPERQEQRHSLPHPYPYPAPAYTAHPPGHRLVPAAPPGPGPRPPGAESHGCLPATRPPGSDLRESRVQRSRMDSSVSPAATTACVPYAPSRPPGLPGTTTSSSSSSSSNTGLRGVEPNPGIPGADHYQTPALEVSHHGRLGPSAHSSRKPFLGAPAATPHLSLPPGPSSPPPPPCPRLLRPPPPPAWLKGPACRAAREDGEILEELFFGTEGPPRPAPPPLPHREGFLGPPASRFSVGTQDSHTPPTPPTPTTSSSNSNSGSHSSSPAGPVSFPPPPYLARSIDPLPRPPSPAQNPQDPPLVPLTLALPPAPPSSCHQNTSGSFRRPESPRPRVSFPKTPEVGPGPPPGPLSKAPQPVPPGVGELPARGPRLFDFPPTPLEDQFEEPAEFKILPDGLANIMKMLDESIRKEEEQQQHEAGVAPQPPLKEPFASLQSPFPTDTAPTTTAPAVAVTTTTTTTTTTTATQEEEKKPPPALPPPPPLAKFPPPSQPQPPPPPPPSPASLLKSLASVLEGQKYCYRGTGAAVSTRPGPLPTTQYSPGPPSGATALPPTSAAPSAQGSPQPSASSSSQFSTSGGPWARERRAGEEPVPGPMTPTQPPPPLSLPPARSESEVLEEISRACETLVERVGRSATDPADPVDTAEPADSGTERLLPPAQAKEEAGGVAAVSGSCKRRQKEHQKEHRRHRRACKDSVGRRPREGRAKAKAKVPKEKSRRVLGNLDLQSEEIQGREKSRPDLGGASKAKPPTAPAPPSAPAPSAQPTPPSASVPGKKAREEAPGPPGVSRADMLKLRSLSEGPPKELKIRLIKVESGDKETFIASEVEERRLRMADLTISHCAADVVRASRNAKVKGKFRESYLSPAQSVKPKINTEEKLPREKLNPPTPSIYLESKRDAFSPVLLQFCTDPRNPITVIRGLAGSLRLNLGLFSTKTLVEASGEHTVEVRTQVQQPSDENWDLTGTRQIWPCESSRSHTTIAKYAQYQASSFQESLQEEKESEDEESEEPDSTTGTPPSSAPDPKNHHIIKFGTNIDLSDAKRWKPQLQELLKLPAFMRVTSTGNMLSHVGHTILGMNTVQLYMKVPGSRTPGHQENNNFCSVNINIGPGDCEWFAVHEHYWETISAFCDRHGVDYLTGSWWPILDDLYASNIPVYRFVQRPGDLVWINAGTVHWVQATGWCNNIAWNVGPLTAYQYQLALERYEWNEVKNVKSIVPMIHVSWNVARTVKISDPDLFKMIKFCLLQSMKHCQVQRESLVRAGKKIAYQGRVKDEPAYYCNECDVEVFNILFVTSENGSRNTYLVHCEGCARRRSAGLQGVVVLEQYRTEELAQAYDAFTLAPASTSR

One may read the IC50 as the midpoint of a concentration-inhibition curve. Turning to `Cc1nc(C(=O)NCC(=O)O)c(O)c2ccc(Oc3ccccc3)cc12` [FG-4592], the IC50 at JMJD3 (KDM6B) (read-out: IC50 JMJD3 (KDM6B)) is greater than 100 µM; at JARID1D (KDM5D) (read-out: IC50 JARID1D (KDM5D)), greater than 100 µM; on JARID1A (KDM5A) (read-out: IC50 JARID1A (KDM5A)), greater than 100 µM; on JARID1C (KDM5C) (read-out: IC50 JARID1C (KDM5C)) it was greater than 100 µM; at Ofd1 (setting [2]), 8.5 µM.
As to `O=C(O)CNC(=O)C1C(=O)N(C2CCCCC2)C(=O)N(C2CCCCC2)C1=O` [GSK1278863], the “time at which HIF-1α level saturated” value in assay [1] (10 μM) came to 3 h. Besides, the “time at which HIF-2α level saturated” value in assay [1] (10 μM) was found to be 3 h. The IC50 was greater than 100 µM at JMJD3 (KDM6B); greater than 100 µM against JARID1D (KDM5D); greater than 100 µM against JARID1A (KDM5A); greater than 100 µM against JARID1C (KDM5C); 23.9 µM against Ofd1.
With `CC(C)(C)OC(=O)c1ccc(-n2[nH]cc(-n3ccnn3)c2=O)nc1` [IOX4], the figures for the “time at which HIF-2α level saturated” value in assay [1] (2.5 μM) and in assay [1] (10 μM) were 1 h and 3 to 10 h, respectively. Also, the “time at which HIF-1α level saturated” value in assay [1] (10 μM) was in the range of 3 to 6 h. For the same compound, the IC50 at JMJD3 (KDM6B) (read-out: IC50 JMJD3 (KDM6B)) was less than 1 µM; at JARID1D (KDM5D) (read-out: IC50 JARID1D (KDM5D)) it was 91 µM; at JARID1A (KDM5A) (read-out: IC50 JARID1A (KDM5A)), 53 µM; at JARID1C (KDM5C) (read-out: IC50 JARID1C (KDM5C)) it was 97 µM; at Ofd1, 41.3 µM.
With `O=c1c(-n2ccnn2)c[nH]n1-c1cc(N2CCOCC2)ncn1` [Molidustat], the “time at which HIF-2α level saturated” value in assay [1] (2.5 μM) was 1 h; in assay [1] (10 μM), “after the first hour”. The “time at which HIF-1α level saturated” value in assay [1] (10 μM) is “after the first hour”. In addition, the half-inhibitory concentration (IC50) was 35 µM on JMJD3 (KDM6B) (read-out: IC50 JMJD3 (KDM6B)); greater than 100 µM on JARID1D (KDM5D) (read-out: IC50 JARID1D (KDM5D)); greater than 100 µM on JARID1A (KDM5A) (read-out: IC50 JARID1A (KDM5A)); greater than 100 µM at JARID1C (KDM5C) (read-out: IC50 JARID1C (KDM5C)); 10.3 µM at Ofd1 (setting [2]).
Regarding `O=C(O)CNC(=O)c1ncc(-c2cccc(Cl)c2)cc1O` [Vadadustat], the “concentration from which dose-dependent HIF-1α stabilization was clear” value in assay [1] (up to 6 hours) was no less than 50 µM. Besides, the IC50 at JMJD3 (KDM6B) (read-out: IC50 JMJD3 (KDM6B)) was 37 µM; at JARID1D (KDM5D) (read-out: IC50 JARID1D (KDM5D)), greater than 100 µM; on JARID1A (KDM5A) (read-out: IC50 JARID1A (KDM5A)), greater than 100 µM; on JARID1C (KDM5C) (read-out: IC50 JARID1C (KDM5C)) it was greater than 100 µM.
